In PubChem BioAssay (NCI):
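Interpolation was linear, between the two tested concentrations surrounding the appropriate level; five concentrations were tested over 48 hours in 96-well plates. GI50 is the concentration that inhibits growth by half. TGI marks complete inhibition of growth.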

Columns and labels:
Assay in all cases: inhibition of tumour cell growth, NCI panel, 48 h
MCF7 breast = system: MCF7 breast
SF-539 CNS = system: SF-539 CNS
SF-295 CNS = system: SF-295 CNS
CCRF-CEM leukemia = system: CCRF-CEM leukemia
UACC-62 melanoma = system: UACC-62 melanoma
SF-268 CNS = system: SF-268 CNS
NCI-H522 lung = system: NCI-H522 lung
OVCAR-4 ovarian = system: OVCAR-4 ovarian
M14 melanoma = system: M14 melanoma
MDA-MB-468 breast = system: MDA-MB-468 breast
A498 renal = system: A498 renal
MDA-MB-435 = system: MDA-MB-435
SNB-75 CNS = system: SNB-75 CNS
SK-MEL-5 melanoma = system: SK-MEL-5 melanoma
RPMI-8226 leukemia = system: RPMI-8226 leukemia
HCT-116 colon = system: HCT-116 colon
SK-MEL-28 melanoma = system: SK-MEL-28 melanoma
NCI-H460 lung = system: NCI-H460 lung
DU-145 prostate = system: DU-145 prostate
SNB-19 CNS = system: SNB-19 CNS
CAKI-1 renal = system: CAKI-1 renal
KM12 colon = system: KM12 colon
HOP-62 NSCLC = system: HOP-62 NSCLC
TK-10 renal = system: TK-10 renal
MALME-3M melanoma = system: MALME-3M melanoma
HCC-2998 colon = system: HCC-2998 colon
MOLT-4 leukemia = system: MOLT-4 leukemia
NCI-H23 lung = system: NCI-H23 lung
SK-OV-3 ovarian = system: SK-OV-3 ovarian
OVCAR-8 ovarian = system: OVCAR-8 ovarian
HS 578T breast = system: HS 578T breast
T-47D breast = system: T-47D breast
RXF 393 renal = system: RXF 393 renal
K-562 leukemia = system: K-562 leukemia
COLO 205 colon = system: COLO 205 colon
MDA-MB-231 breast = system: MDA-MB-231 breast
A549 NSCLC = system: A549 NSCLC
ACHN renal = system: ACHN renal
EKVX NSCLC = system: EKVX NSCLC
U251 CNS = system: U251 CNS
HT29 colon = system: HT29 colon
BT-549 breast = system: BT-549 breast
IGROV1 ovarian = system: IGROV1 ovarian
OVCAR-3 ovarian = system: OVCAR-3 ovarian
786-0 renal = system: 786-0 renal
HOP-92 NSCLC = system: HOP-92 NSCLC
HL-60(TB) leukemia = system: HL-60(TB) leukemia
OVCAR-5 ovarian = system: OVCAR-5 ovarian
SN12C renal = system: SN12C renal
SR leukemia = system: SR leukemia
SW-620 colon = system: SW-620 colon
LOX IMVI melanoma = system: LOX IMVI melanoma
UACC-257 melanoma = system: UACC-257 melanoma
PC-3 prostate = system: PC-3 prostate
HCT-15 colon = system: HCT-15 colon
UO-31 renal = system: UO-31 renal
SK-MEL-2 melanoma = system: SK-MEL-2 melanoma
NCI-H226 lung = system: NCI-H226 lung

C=C1CC[C@@H]2[C@]3(C)COC(c4cn[nH]c4-c4ccccc4)O[C@@H]3CC[C@@]2(C)[C@@H]1C/C=C1/C(=O)OCC1O (stereo partly specified)
GI50 (MCF7 breast): 10.5 µM | TGI (MCF7 breast): 34.9 µM | GI50 (SF-539 CNS): 15.6 µM | TGI (SF-539 CNS): 30.3 µM | GI50 (SF-295 CNS): 15.4 µM | TGI (SF-295 CNS): 30.5 µM | GI50 (CCRF-CEM leukemia): 4.83 µM | TGI (CCRF-CEM leukemia): 42.5 µM | GI50 (UACC-62 melanoma): 13.5 µM | TGI (UACC-62 melanoma): 28.7 µM | GI50 (SF-268 CNS): 18.5 µM | TGI (SF-268 CNS): 75.4 µM | GI50 (NCI-H522 lung): 14.1 µM | TGI (NCI-H522 lung): 29.8 µM | GI50 (OVCAR-4 ovarian): 15.2 µM | TGI (OVCAR-4 ovarian): 52 µM | GI50 (M14 melanoma): 14.4 µM | TGI (M14 melanoma): 28.2 µM | GI50 (MDA-MB-468 breast): 9 µM | TGI (MDA-MB-468 breast): 32.6 µM | GI50 (A498 renal): 30.9 µM | TGI (A498 renal): > 100 µM | GI50 (MDA-MB-435): 13.5 µM | TGI (MDA-MB-435): 29.8 µM | GI50 (SNB-75 CNS): 10.4 µM | TGI (SNB-75 CNS): 35.1 µM | GI50 (SK-MEL-5 melanoma): 12.4 µM | TGI (SK-MEL-5 melanoma): 24.8 µM | GI50 (RPMI-8226 leukemia): 8.39 µM | TGI (RPMI-8226 leukemia): 93.8 µM | GI50 (HCT-116 colon): 12.2 µM | TGI (HCT-116 colon): 32.2 µM | GI50 (SK-MEL-28 melanoma): 13.7 µM | TGI (SK-MEL-28 melanoma): 26.8 µM | GI50 (NCI-H460 lung): 15.3 µM | TGI (NCI-H460 lung): 32.3 µM | GI50 (DU-145 prostate): 13.8 µM | TGI (DU-145 prostate): 35.4 µM | GI50 (SNB-19 CNS): 15 µM | TGI (SNB-19 CNS): 28.5 µM | GI50 (CAKI-1 renal): 11.6 µM | TGI (CAKI-1 renal): 32.2 µM | GI50 (KM12 colon): 11.3 µM | TGI (KM12 colon): 54.9 µM | GI50 (HOP-62 NSCLC): 16.1 µM | TGI (HOP-62 NSCLC): 35.6 µM | GI50 (TK-10 renal): 20.2 µM | TGI (TK-10 renal): 51.7 µM | GI50 (MALME-3M melanoma): 13.2 µM | TGI (MALME-3M melanoma): 30.5 µM | GI50 (HCC-2998 colon): 15.8 µM | TGI (HCC-2998 colon): 29.3 µM | GI50 (MOLT-4 leukemia): 3.83 µM | TGI (MOLT-4 leukemia): 54.5 µM | GI50 (NCI-H23 lung): 13.6 µM | TGI (NCI-H23 lung): 26.5 µM | GI50 (SK-OV-3 ovarian): 22 µM | TGI (SK-OV-3 ovarian): 63.5 µM | GI50 (OVCAR-8 ovarian): 18 µM | TGI (OVCAR-8 ovarian): 49.6 µM | GI50 (HS 578T breast): 9.81 µM | TGI (HS 578T breast): 54.7 µM | GI50 (T-47D breast): 20.2 µM | TGI (T-47D breast): > 100 µM | GI50 (RXF 393 renal): 8.5 µM | TGI (RXF 393 renal): 21.7 µM | GI50 (K-562 leukemia): 12.8 µM | TGI (K-562 leukemia): > 100 µM | GI50 (COLO 205 colon): 15 µM | TGI (COLO 205 colon): 28.2 µM | GI50 (MDA-MB-231 breast): 15.8 µM | TGI (MDA-MB-231 breast): 32.8 µM | GI50 (A549 NSCLC): 17.3 µM | TGI (A549 NSCLC): 51.8 µM | GI50 (ACHN renal): 17.6 µM | TGI (ACHN renal): 69.1 µM | GI50 (EKVX NSCLC): 14.5 µM | TGI (EKVX NSCLC): 32.7 µM | GI50 (U251 CNS): 14.3 µM | TGI (U251 CNS): 28.6 µM | GI50 (HT29 colon): 15.4 µM | TGI (HT29 colon): 32.7 µM | GI50 (BT-549 breast): 15.2 µM | TGI (BT-549 breast): 43.3 µM | GI50 (IGROV1 ovarian): 17 µM | TGI (IGROV1 ovarian): 42.8 µM | GI50 (OVCAR-3 ovarian): 11.1 µM | TGI (OVCAR-3 ovarian): 37.5 µM | GI50 (786-0 renal): 18.8 µM | TGI (786-0 renal): 43 µM | GI50 (HOP-92 NSCLC): 9.14 µM | TGI (HOP-92 NSCLC): 30.6 µM | GI50 (HL-60(TB) leukemia): 13.3 µM | TGI (HL-60(TB) leukemia): 67.5 µM | GI50 (OVCAR-5 ovarian): 19.2 µM | TGI (OVCAR-5 ovarian): 37.7 µM | GI50 (SN12C renal): 22 µM | TGI (SN12C renal): 70 µM | GI50 (SR leukemia): 21.2 µM | TGI (SR leukemia): > 100 µM | GI50 (SW-620 colon): 14.4 µM | TGI (SW-620 colon): 33.3 µM | GI50 (LOX IMVI melanoma): 10.9 µM | TGI (LOX IMVI melanoma): 25 µM | GI50 (UACC-257 melanoma): 15.6 µM | TGI (UACC-257 melanoma): 36.1 µM | GI50 (PC-3 prostate): 12.2 µM | TGI (PC-3 prostate): > 100 µM | GI50 (HCT-15 colon): 13.2 µM | TGI (HCT-15 colon): 27.2 µM | GI50 (UO-31 renal): 11.5 µM | TGI (UO-31 renal): 28 µM | GI50 (SK-MEL-2 melanoma): 14.8 µM | TGI (SK-MEL-2 melanoma): 28.7 µM | GI50 (NCI-H226 lung): 16.1 µM | TGI (NCI-H226 lung): 37.8 µM
